Test results reported in patent US20060235035A1, “Novel methoxybenzamibe compounds for use in mch receptor related disorders” (7TM Pharma A/S, priority 2002, published 2006).

Key:
[1] = biological target: T1, human MCH-1 receptor (Homo sapiens, UniProt Q99705); assay: Radioligand binding assay ([125I]-MCH competition, whole cells); details: competition with [125I]-MCH; COS-7 or CHO cells expressing human MCH-1 receptor
T1 construct: expressed in transfected cells; host or cells: transiently transfected COS-7 cells or stably transfected CHO cells (pcDNA3.1)
T1 sequence (Q99705 whole entry): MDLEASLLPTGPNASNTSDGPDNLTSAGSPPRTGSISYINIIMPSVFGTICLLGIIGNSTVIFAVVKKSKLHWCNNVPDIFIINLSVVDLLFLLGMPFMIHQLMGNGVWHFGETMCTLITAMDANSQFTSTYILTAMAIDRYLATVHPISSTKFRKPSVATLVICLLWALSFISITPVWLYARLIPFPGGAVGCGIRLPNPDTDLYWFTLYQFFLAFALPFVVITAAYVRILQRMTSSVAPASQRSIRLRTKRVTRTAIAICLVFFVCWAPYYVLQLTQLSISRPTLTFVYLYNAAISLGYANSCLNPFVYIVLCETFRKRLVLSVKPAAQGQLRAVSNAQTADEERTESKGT
Description: Transfections and Tissue Culture—The cDNA encoding the human MCH-1 receptor was cloned from a human brain cDNA library and cloned into the eukaryotic expression vector pcDNA3.1 (Invitrogen). Assays were performed on transiently transfected COS-7 cells or stably transfected CHO (Chinese Hamster Ovary) cells, expressing the human MCH-1 receptor in pcDNA3.1. Stable MCH-1 receptor transfectants of CHO cells were obtained using 5 μg plasmid cDNA and a standard calcium phosphate transfection method (Johansen et al., 1990; Gether et al., 1992) with subsequent selection in 1 mg/ml G418 (Life Technology). Clones were screened by a MCH receptor radioligand binding assay (as described below). Stably transfected CHO cells were maintained in RPMI 1640 culture medium (Invitrogen), supplemented with 10% fetal calf serum (Invitrogen), 100 U/ml penicillin, 100 μg/ml streptomycin (Life Technology), and 500 μg/ml G418 (Life Technology). COS-7 cells were grown in Dulbecco's modified Eagle's medium (DMEM) 1885 (Invitrogen) supplemented with 10% fetal calf serum, 100 U/ml penicillin, 100 μg/ml streptomycin, and were transiently transfected by a standard calcium phosphate transfection method (Johansen et al., 1990; Gether et al., 1992) two days before assay.
Radioligand Binding Assay—Transiently transfected COS-7 cells or stably transfected CHO cells, expressing human MCH-1 receptor were seeded in multi-well culture plates one day before the assay. The number of cells per well was determined by the apparent expression efficiency of the cell line aiming at 5-10% binding of the added radioligand. Cells were assayed by competition binding for 3 hours at room temperature using […] [^125I]-MCH (Amersham Pharmacia Biotech) plus variable amounts of unlabeled ligand in 0.5 ml of a 25 mM Hepes buffer, pH 7.4, supplemented with 10 mM MgCl2, 5 mM MnCl2, 10 mM NaCl, 0.1% (w/v) bovine serum albumin (BSA), 100 μg/ml bacitracin. The assay was performed in duplicate. Nonspecific binding was determined as the binding in the presence of 1 μM MCH (Bachem). Binding data were analyzed and IC50 values determined by non-linear regression using the Prism software (GraphPad software, San Diego). Values of the dissociation and inhibition constants (Kd and Ki) were estimated from competition binding using the equations Kd=IC50−L and Ki=IC50/(1+L/Kd), respectively, where L is the concentration of radioligand.

[2] = biological target: T1, human MCH-1 receptor; assay: Phosphatidylinositol assay (IP3); format: cell-based; details: phosphatidylinositol turnover stimulated by 10 nM MCH; COS-7 or CHO cells expressing human MCH-1 receptor
Description: Transfections and Tissue Culture—The cDNA encoding the human MCH-1 receptor was cloned from a human brain cDNA library and cloned into the eukaryotic expression vector pcDNA3.1 (Invitrogen). Assays were performed on transiently transfected COS-7 cells or stably transfected CHO (Chinese Hamster Ovary) cells, expressing the human MCH-1 receptor in pcDNA3.1. […] Clones were screened by a MCH receptor radioligand binding assay (as described below).
Phosphatidylinositol assay—To assay phosphatidylinositol turnover, transiently transfected COS-7 cells or stably transfected CHO cells, expressing human MCH-1 receptor (2×10^5 cells/well) were incubated for 24 h with 5 μCi of [^3H]-myo-inositol (Amersham Pharmacia Biotech) in 0.5 ml inositol-free culture medium. Cells were washed twice in PI-buffer: 20 mM HEPES, pH 7.4, supplemented with 140 mM NaCl, 5 mM KCl, 1 mM MgSO4, 1 mM CaCl2, 10 mM glucose, 0.02% (w/v) bovine serum; and were incubated in 0.5 ml PI-buffer supplemented with 10 mM LiCl at 37° C. for 45 min. Phosphatidylinositol turnover was stimulated by submaximal concentrations of MCH, i.e. 10 nM in the presence of increasing amounts of ligand. The ligand was added 5 min. before adding the agonist (MCH). Cells were extracted with 10 mM ice-cold Formic acid, and the generated [^3H]-inositol phosphates were purified on Bio-Rad AG 1-X8 anion-exchange resin. Determinations were made in duplicate. PI data were analyzed and IC50 values determined by non-linear regression using the Prism software (GraphPad software, San Diego).

[3] = biological target: T2, hMCHreceptor (Homo sapiens, UniProt Q99705); assay: Scintillation Proximity Assay (SPA), [125I]-MCH binding to CHO-K1 membranes; details: CHO-K1 membranes expressing hMCH receptor
T2 construct: purchased Euroscreen ES-370-M; host or cells: CHO-K1 membranes
T2 sequence (Q99705 whole entry): as above
Description: Scintillation Proximity Assay (SPA)—Measurement of [^125I]-MCHbinding was performed in duplicates by incubating membranes and beads with tracer in the presences of various concentrations of test compounds (10^−8 to 10^−4 M) in DMSO (3 μl) at room temperature for two hours. Membranes and beads were pre-incubated for 20 min. The binding buffer contained 50 mM Tris (pH 7.4), 8 mM MgCl2, 12% glycerol, 0.1% (w/v) bovine serum albumin (BSA), and protease inhibitors (Complete protease inhibitor cocktail tablets, Roche). A final [^125I]-MCH(2000 Ci/mmol; Amersham Pharmacia Biotech) concentration of 75.000 cpm/well (33.8 nCi) was applied and PEI-treated WGA-coupled PVT SPA beads, type B from Amersham Pharmacia Biotech were used at a final concentration of 0.4 mg/well. Moreover, CHO-K1 membranes expressing the hMCHreceptor were purchased from Euroscreen (ES-370-M) and a final concentration of 2 μg/well were used. Binding data were analyzed and IC50 values determined by non-linear regression using the Prism software (GraphPad software, San Diego). Values of the inhibition constant (Ki) were estimated from competition binding using the equation Ki=IC50/([…]), where L and Kd are the concentration and affinity constant, respectively, of the radioligand.

IC50 [1]	IC50 [2]	IC50 [3]	Compound
300 nM			COc1cc(NC(=O)Nc2ccc3c(c2)CCC3)ccc1C(=O)NC1CCN(Cc2ccccc2)CC1 [Ex 137, N-(1-Benzyl-piperidin-4-yl)-4-(3-indan-5-yl-ureido)-2-methoxy-benzamide]
69 nM	670 nM		CCCCN(CCCC)CCCNC(=O)c1ccc(N(C)C(=O)Nc2ccc(Oc3ccccc3)cc2)cc1OC [Ex 134, N-(3-Dibutylamino-propyl)-2-methoxy-4-[1-methyl-3-(4-phenoxy-phenyl)-ureido]-benzamide]
96 nM	190 nM		CCN(CC)CCNC(=O)c1ccc(NC(=O)Nc2ccc(OC(F)(F)F)cc2)cc1OC [Ex 48, N-(2-Diethylamino-ethyl)-2-methoxy-4-[3-(4-trifluoromethoxy-phenyl)-ureido]-benzamide]
380 nM	2300 nM		COc1cc(NC(=O)Nc2ccc(Oc3ccccc3)cc2)ccc1C(=O)NCCN(C)C [Ex 8, N-(2-Dimethylamino-ethyl)-2-methoxy-4-[3-(4-phenoxy-phenyl)-ureido]-benzamide]
1000 nM			COc1cc(NC(=O)Nc2ccc(Oc3ccccc3)cc2)c(F)cc1C(=O)NCCCN1CCCCC1 [Ex 186, 5-Fluoro-2-methoxy-4-[3-(4-phenoxy-phenyl)-ureido]-N-(3-piperidin-1-yl-propyl)-benzamide]
74 nM			COc1cc(NC(=O)Nc2cccc(Oc3ccccc3)c2)ccc1C(=O)NCCCN1CCOCC1 [Ex 121, 2-Methoxy-N-(3-morpholin-4-yl-propyl)-4-[3-(3-phenoxy-phenyl)-ureido]-benzamide]
44 nM	240 nM		COc1cc(NC(=O)Nc2ccc(Oc3ccccc3)cc2)ccc1C(=O)NCCCN1CCCCC1 [Ex 95, 2-Methoxy-4-[3-(4-phenoxy-phenyl)-ureido]-N-(3-piperidin-1-yl-propyl)-benzamide]
4450 nM			COc1cc(NC(=O)Nc2ccc(Oc3ccccn3)cc2)ccc1C(=O)NCCCN1CCOCC1 [Ex 136, 2-Methoxy-N-(3-morpholin-4-yl-propyl)-4-(3-[4-(pyridin-2-yloxy)-phenyl]-ureido)-benzamide]
210 nM	770 nM		COc1cc(NC(=O)Nc2ccc(Oc3ccccc3)cc2)ccc1C(=O)NCCCN1CCOCC1 [Ex 23, 2-Methoxy-N-(3-morpholin-4-yl-propyl)-4-[3-(4-phenoxy-phenyl)-ureido]-benzamide]
	220 nM	27 nM	COc1cc(NC(=O)Nc2ccc(C(F)(F)F)cc2)ccc1C(=O)NCCN1CCOCC1 [Ex 67, 2-Methoxy-N-(2-morpholin-4-yl-ethyl)-4-[3-(4-trifluoromethyl-phenyl)-ureido]-benzamide]
70 nM	290 nM		CCN(CC)CCNC(=O)c1ccc(NC(=O)Nc2ccc(OC(F)(F)F)cc2)cc1 [Ex 47, N-(2-Diethylamino-ethyl)-4-[3-(4-trifluoromethoxy-phenyl)-ureido]-benzamide]
48 nM	290 nM		CCN(CC)CCNC(=O)c1ccc(N(C)C(=O)Nc2ccc(Oc3ccccc3)cc2)cc1OC [Ex 33, N-(2-Diethylamino-ethyl)-2-methoxy-4-[1-methyl-3-(4-phenoxy-phenyl)-ureido]-benzamide]
1480 nM			COc1cc(NC(=O)c2ccc(-c3ccccc3)cc2)ccc1C(=O)NCCN(C)C [Ex 2, Biphenyl-4-carboxylic acid[4-(2-dimethylamino-ethylcarbamoyl)-3-methoxy-phenyl]-amide]
220 nM	1800 nM		COc1cc(NC(=O)Nc2ccc(Oc3ccccc3)cc2)ccc1C(=O)NC1CCN(Cc2ccccc2)CC1 [Ex 16, N-(1-Benzyl-piperidin-4-yl)-2-methoxy-4-[3-(4-phenoxy-phenyl)-ureido]-benzamide]
12 nM	22 nM		COc1cc(NC(=O)Nc2cccc(Nc3ccccc3)c2)ccc1C(=O)NCCCN1CCCCC1 [Ex 89, 2-Methoxy-4-[3-(3-phenylamino-phenyl)-ureido]-N-(3-piperidin-1-yl-propyl)-benzamide]
1410 nM			COc1cc(NC(=O)Nc2ccc(Nc3ccc(C(F)(F)F)cc3)cc2)ccc1C(=O)NCCCN1CCOCC1 [Ex 139, 2-Methoxy-N-(3-morpholin-4-yl-propyl)-4-{3-[4-(4-trifluoromethyl-phenylamino)-phenyl]-ureido}-benzamide]
450 nM	1600 nM		COc1cc(NC(=O)Nc2ccc(Oc3ccc(F)cc3)cc2)ccc1C(=O)NCCCN1CCOCC1 [Ex 135, 4-{3-[4-(4-Fluoro-phenoxy)-phenyl]-ureido}-2-methoxy-N-(3-morpholin-4-yl-propyl)-benzamide]
